Consider two compounds from patent publication US6635656B1, “Cytotoxic alkaloids halitulin” (Pharma Mar, S.A., priority 1998, dated 2003).

One data set has as its system P-388 murine leukemia. The data set is described as follows: Cytotoxicity screening against P-388 cell culture. It is filed as cell-based. Particulars: Mus musculus, P388; P-388 cells, approximate IC50 from growth vs control wells. The source says: (§1) Cell Cultures. Cells were maintained in logarithmic phase of growth in eagle's Minimum Essential Medium, with Earle's Balanced Salts, with […] L-glutamine, with non-essential amino acids, without sodium bicarbonate (EMEM/neaa); supplemented with 10% Fetal Calf Serum (FCS), 10^−2 M sodium bicarbonate and 0,1 g/l penicillin-G+streptomycin sulfate.
(§2) A simple screening procedure has been carried out to determine and compare the antitumor activity of these compounds, using an adapted form of the method described by Bergeron et al. (1984)(1). The antitumor cells employed have been P-388 (suspension culture of a lymphoid neoplasm from DBA/2 mouse), A0549 (monolayer culture of a human lung carcinoma), HT-29 (monolayer culture of a human colon carcinoma) and MEL-28 (monolayer culture of a human melanoma).
P-388 cells were seeded into 16 mm wells at 1×10^4 cells per well in 1 ml aliquots of MEM 5FCS containing the indicated concentration of drug. A separate set of cultures without drug was seeded as control growth to ensure that cells remained in exponential phase of growth. All a 98% humid atmosphere, an approximately IC50 was determined by comparing the growth in wells with drug to the growth in wells control.

Data set [1] relates to A-549 human lung carcinoma. The data set is described as follows: Cytotoxicity screening against A-549 cell culture. It is filed as cell-based. To be noted: A-549 cells, three days of incubation, Crystal Violet.
Description: as §1, §2
(§3) A-549, HT-29 and MEL-28 cells were seeded into 16 mm wells at 2×10^4 cells per well in 1 ml aliquots of MEM 10FCS containing the indicated concentration of drug. A separate set of cultures without drug was seeded as control growth to ensure that cells remained in exponential phase of growth. All determinations were carried out in duplicate. After three days of incubation at 37° C., 10% CO2 in a 98% humid atmosphere, the wells were stained with 0.1% Crystal Violet. An approximately IC50 was determined by comparing the growth in wells with drug to the growth in wells control.

Data set [2] deals with HT-29 human colon carcinoma. The data set can be described thus: Cytotoxicity screening against HT-29 cell culture. It is filed as cell-based. To be noted: HT-29 cells, three days of incubation, Crystal Violet.
Description: as §1, §2, §3

A further data set deals with MEL-28 human melanoma. The data set can be described thus: Cytotoxicity screening against MEL-28 cell culture. It is filed as cell-based. Particulars: SK-MEL-28, 72 h, MEL-28 cells, three days of incubation, Crystal Violet.
Description: as §1, §2, §3

Data set [3] can be described thus: Stability observations (light, air, handling). It is filed as physicochemical. To be noted: N-oxides, then o-quinolinoquinone, form. How it is done: Halitulin (2) was analyzed for C35H40N4O4 by HREIMS (m/z 580.3054, 100% Δmmu−0.5) confirmed by positive and negative FABMS (m/z 581 and 579, respectively). […] The duplicated part, according to the integration of the proton signals, was determined to be the aromatic portion of the molecule. Comparing the NMR data of the aliphatic part of 2 (Table 1) with haliclorensin (1)^7, together with the COSY, TOCSY, and HMBC data, established their identity. The incorporation of 1 in halitulin was further supported by the two MS fragments at m/z 168 (C11H22N+, 48%) and m/z/399 (MW^+-C12H24N, 90%), resulting from the preferable αβ to the aliphatic nitrogen-atoms^1 fragmentation at C-13,14 and C-12,13 respectively. Determination of the haliclorensin moiety in 2 left C22H14N3O4 (including the adjoining N-atom) with 17 degrees of unsaturation to be accounted for. […] Indeed, acetylation of 2, with a 1:1 mixture of Ac2O/pyridine, overnight at room temperature., afforded a very unstable tetra phenol acetate (3), on the basis of the HREIMS which gave the suitable molecular ion and also four subsequential losses of 42 mass units, and no loss of 60 mass units^13. The four phenol acetate groups were in full agreement with the 1773 cm^−1 IR absorption and the new methyls in the proton NMR. […]

Data set [4] in a line: Cytotoxic activity, test not specified. It is filed as cell-based. Particulars: qualitative statement, cell line not given.

What is called IC50 is the point on the concentration scale where inhibition reaches its midpoint.

The structures appear in SMILES notation. Values after ≈ are worked out from the molar mass of the structure shown. Read-outs that look alike come from different tables or passages of the source.

In the case of `CC1CCCCCCCN(CCCn2cc(-c3cc(O)c(O)c4ncccc34)c(-c3cc(O)c(O)c4ncccc34)c2)C1` (centres unmarked) [Halitulin, halitulin], the IC50 came out at 0.025 µg/mL (≈ 0.043 µM) with P-388 murine leukemia; 0.0125 µg/mL (≈ 0.0215 µM) in data set [1]; 0.012 µg/mL (≈ 0.0207 µM) in data set [1] (Homo sapiens, A549, 72 h, read-out: IC50); 0.0125 µg/mL (≈ 0.0215 µM) in data set [2]; 0.012 µg/mL (≈ 0.0207 µM) in data set [2] (Homo sapiens, HT-29, 72 h, read-out: IC50); 0.025 µg/mL (≈ 0.043 µM) in the data set on MEL-28 human melanoma. The “stability to light and air” value in data set [3] was “sensitive to light and air”.
Turning to `CC1CCCCCN(CCCN)C1` (centres unmarked) [haliclorensin, N-(3′-arninopropyl)-3-methylazacyclodecane], in data set [4], the cytotoxic activity result was “inactive”.
